Results taken from patent US20230219965A1 (KSQ Therapeutics, Inc., priority 2020, published 2023).

Target: USP1/UAF1 enzyme (Homo sapiens, UniProt O94782)
Assay: USP1/UAF1 deubiquitination assay (ubiquitin-rhodamine 110 substrate)
Format: biochemical
Conditions: read-out: USP1 IC50 (Ub-Rho)
Description: Certain Compounds of the Disclosure were assessed for USP1/UAF1 activity in a Ubiquitin Rhodamine assay modified from those described previously.
Deubiquitinase activity was measured using ubiquitin-rhodamine 110 as a substrate. Cleavage of the amide bond between rhodamine and the c-terminal glycine of ubiquitin yields an increase in fluorescence signal. The assay was conducted in 20 μl total volume of assay buffer (50 mM Tris-HCl, pH 7.8, 0.5 mM EDTA, 0.01% Bovine Serum Albumin, 1 mM DTT, 0.01% Tween-20), and 0.05 nM USP1/UAF1 enzyme. Reaction was initiated by addition of 150 nM Ubiquitin-rhodamine (Boston Biochem) substrate.
Compounds of the Disclosure, dissolved in DMSO were tested in dose response format, beginning at […].
The example compounds listed below were added to enzyme/assay buffer mix and incubated 10 min. Substrate mix was added, and reaction mix was read in kinetic mode for 30 min at Ex480/Em540 and IC50 response curves were plotted.
Data for all assay formats was calculated as percent inhibition compared with control wells. Percent inhibition was calculated using the following equation: % inhibition=100×[1−(X−min)/(max−min)], where X is the raw data readout, min is the average of the no enzyme control wells (n=32), max is the average of the DMSO control well (n=32). IC50 values were calculated using the standard four parameter curve fitting algorithm in either Prism GraphPad (La Jolla, Calif.) software, or Collaborative Drug Discovery (Burlingame, Calif.) CDD Vault. See Chem. Biol. 20(1): 55-62 (Jan. 24, 2013); Bioorg. Med. Chem. Lett. 23(20): 5660-5666 (Oct. 15, 2013).

Chain of USP1/UAF1 enzyme (O94782 whole entry): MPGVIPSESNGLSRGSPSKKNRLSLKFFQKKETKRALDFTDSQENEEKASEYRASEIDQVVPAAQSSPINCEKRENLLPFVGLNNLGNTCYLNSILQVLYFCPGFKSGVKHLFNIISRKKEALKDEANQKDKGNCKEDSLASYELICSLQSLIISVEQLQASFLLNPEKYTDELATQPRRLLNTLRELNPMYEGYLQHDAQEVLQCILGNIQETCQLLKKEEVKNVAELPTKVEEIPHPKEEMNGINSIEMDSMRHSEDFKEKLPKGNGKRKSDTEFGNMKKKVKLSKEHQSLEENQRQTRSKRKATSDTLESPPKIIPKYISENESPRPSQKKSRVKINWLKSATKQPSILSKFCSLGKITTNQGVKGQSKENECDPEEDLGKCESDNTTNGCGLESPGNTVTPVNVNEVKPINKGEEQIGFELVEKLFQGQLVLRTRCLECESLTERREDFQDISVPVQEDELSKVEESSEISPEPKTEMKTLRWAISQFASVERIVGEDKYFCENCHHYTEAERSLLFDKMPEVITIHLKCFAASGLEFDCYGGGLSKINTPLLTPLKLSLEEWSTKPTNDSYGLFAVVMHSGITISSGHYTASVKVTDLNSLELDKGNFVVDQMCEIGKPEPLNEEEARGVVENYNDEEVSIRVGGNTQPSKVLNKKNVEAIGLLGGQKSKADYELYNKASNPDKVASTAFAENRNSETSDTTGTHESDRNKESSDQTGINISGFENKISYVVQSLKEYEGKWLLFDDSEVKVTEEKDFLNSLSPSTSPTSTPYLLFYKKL
Chain of USP1/UAF1 enzyme (Q8TAF3 whole entry partner): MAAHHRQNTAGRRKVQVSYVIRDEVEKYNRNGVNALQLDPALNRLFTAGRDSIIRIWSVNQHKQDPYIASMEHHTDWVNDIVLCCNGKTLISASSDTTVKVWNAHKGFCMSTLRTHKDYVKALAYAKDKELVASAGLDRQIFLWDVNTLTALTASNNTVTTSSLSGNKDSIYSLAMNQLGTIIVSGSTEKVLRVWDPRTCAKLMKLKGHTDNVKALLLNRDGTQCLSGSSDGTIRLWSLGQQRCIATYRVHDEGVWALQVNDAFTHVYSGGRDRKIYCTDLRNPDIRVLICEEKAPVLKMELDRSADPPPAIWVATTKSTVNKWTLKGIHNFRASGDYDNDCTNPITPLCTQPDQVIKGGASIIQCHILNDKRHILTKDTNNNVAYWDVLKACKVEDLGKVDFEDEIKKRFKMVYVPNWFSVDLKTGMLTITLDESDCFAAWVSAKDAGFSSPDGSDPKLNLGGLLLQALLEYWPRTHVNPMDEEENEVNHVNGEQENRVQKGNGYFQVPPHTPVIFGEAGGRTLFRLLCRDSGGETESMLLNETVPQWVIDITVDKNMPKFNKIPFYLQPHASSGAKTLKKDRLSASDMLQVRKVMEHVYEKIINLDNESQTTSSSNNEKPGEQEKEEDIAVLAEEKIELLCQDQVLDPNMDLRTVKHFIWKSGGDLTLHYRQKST

Row | Compound | IC50 [nM]
1 | CCn1nc(-c2ccc(CN3C(=O)CCn4nc(-c5c(C)cnn5C(C)C)cc43)cc2)nc1C(F)(F)F [Example 15, 4-(4-(1-ethyl-5-(trifluoromethyl)-1H-1,2,4-triazol-3-yl)benzyl)-2-(1-isopropyl-4-methyl-1H-pyrazol-5-yl)-6,7-dihydropyrazolo[1,5-a]pyrimidin-5(4H)-one] | > 500
2 | CCn1ncc(Cl)c1-c1cc2n(n1)CCC(=O)N2Cc1ccc(-c2nc(C(F)(F)F)cn2C)c(F)c1 [Example 17, 2-(4-chloro-1-ethyl-1H-pyrazol-5-yl)-4-(3-fluoro-4-(1-methyl-4-(trifluoromethyl)-1H-imidazol-2-yl)benzyl)-6,7-dihydropyrazolo[1,5-a]pyrimidin-5(4H)-one] | < 100
3 | CC(C)n1ncc(F)c1-c1cc2n(n1)CCC(=O)N2Cc1ccc(-c2nc(C(F)(F)F)cn2C)c(F)c1 [Example 21, 2-(4-fluoro-1-isopropyl-1H-pyrazol-5-yl)-4-(3-fluoro-4-(1-methyl-4-(trifluoromethyl)-1H-imidazol-2-yl)benzyl)-6,7-dihydropyrazolo[1,5-a]pyrimidin-5(4H)-one] | 100 to 500
4 | CCn1cc(C(F)(F)F)nc1-c1ccc(CN2C(=O)CCn3nc(-c4cccc5c4N(C)CC5)cc32)cc1 [Example 23, 4-(4-(1-ethyl-4-(trifluoromethyl)-1H-imidazol-2-yl)benzyl)-2-(1-methylindolin-7-yl)-6,7-dihydropyrazolo[1,5-a]pyrimidin-5(4H)-one] | 100 to 500
5 | CCn1cc(C(F)(F)F)nc1-c1ccc(CN2C(=O)CCn3nc(-c4c(OC)cnn4C(C)C)nc32)cc1 [Example 45] | > 500
6 | CC(C)n1ncc(Cl)c1-c1cc2n(n1)CCC(=O)N2Cc1ccc(-c2nc(C(F)(F)F)cn2C)nc1 [Example 82] | 100 to 500
7 | CCn1nc(C(F)(F)F)nc1-c1ccc(CN2C(=O)CCn3nc(-c4c(Cl)cnn4C(C)C)cc32)cc1 [Example 84] | 100 to 500
8 | CCn1cc(C(F)(F)F)nc1-c1ccc(CN2C(=O)CCn3nc(-c4c(F)cnn4C(C)C)cc32)cc1 [Example 85] | 100 to 500
9 | COc1cc(C(F)(F)F)nn1-c1ccc(CN2C(=O)CCn3nc(-c4c(Cl)cnn4C(C)C)cc32)cn1 [Example 89] | < 100
10 | Cc1cc(C(F)(F)F)n(-c2ccc(CN3C(=O)CCn4nc(-c5c(Cl)cnn5C(C)C)cc43)cc2F)n1 [Example 92] | > 500
11 | CC(C)n1ncc(Cl)c1-c1cc2n(n1)CCC(=O)N2Cc1ccc(-c2ccn(C)n2)cc1 [Example 95] | 100 to 500
12 | CC(C)n1ncc(Cl)c1-c1cc2n(n1)CCC(=O)N2Cc1ccc(-c2nc(C(F)(F)F)n(C)n2)cc1 [Example 101] | 100 to 500
13 | CC(C)n1ncc(Cl)c1-c1cc2n(n1)CCC(=O)N2Cc1ccc(-c2nc(C(F)(F)F)nn2C)cc1 [Example 102] | 100 to 500
14 | CC(c1ccc(F)cc1)N1C(=O)CCn2nc(-c3c(Cl)cnn3C(C)C)cc21 (stereo not shown) [Example 110] | 100 to 500
15 | COc1ccnn1-c1ccc(CN2C(=O)CCn3nc(-c4c(Cl)cnn4C(C)C)cc32)cc1 [Example 117] | 100 to 500
16 | CCn1cc(C(F)(F)F)nc1-c1cc2c(cc1F)C(N1C(=O)CCn3nc(-c4c(Cl)cnn4C(C)C)cc31)CC2 (stereo not shown) [Example 121] | 100 to 500
17 | CCn1cc(C)nc1-c1ccc(CN2C(=O)CCn3nc(-c4c(Cl)cnn4C(C)C)cc32)cc1 [Example 134] | 100 to 500

More lines, now with the values ahead:

Row | IC50 [nM] | Compound
18 | > 500 | COc1cccnc1-c1ccc(N[C@@H]2CCCn3nc(-c4c(OC)ncnc4C4CC4)cc32)cc1F (single isomer, unassigned) [Example 251]
19 | 100 to 500 | COc1cccnc1-c1ccc(N[C@H]2CCCn3nc(-c4c(OC)ncnc4C4CC4)cc32)cc1F (single isomer, unassigned) [Example 252]
20 | 100 to 500 | COc1cccnc1-c1ccc(N[C@@H]2CCCn3nc(-c4c(OC)ncnc4C4CC4)cc32)cc1Cl (single isomer, unassigned) [Example 253]
21 | 100 to 500 | COc1cccnc1-c1ccc(N[C@H]2CCCn3nc(-c4c(OC)ncnc4C4CC4)cc32)cc1Cl (single isomer, unassigned) [Example 254]
22 | 100 to 500 | COc1ncnc(C2CC2)c1-c1cc2n(n1)CCC(=O)N2C(C)c1ccc(-c2nc(C(F)(F)F)cn2C)cc1 (stereo not shown) [Example 3, 2-(4-cyclopropyl-6-methoxypyrimidin-5-yl)-4-(1-(4-(1-methyl-4-(trifluoromethyl)-1H-imidazol-2-yl)phenyl)ethyl)-6,7-dihy dropyrazolo[1,5-a]pyrimidin-5(4H)-one]
23 | 100 to 500 | CCn1cc(C(F)(F)F)nc1-c1ccc(CN2C(=O)CCn3nc(-c4c(OC)ncnc4OC)cc32)cc1 [Example 5, 2-(4,6-dimethoxypyrimidin-5-yl)-4-(4-(1-ethyl-4-(trifluoromethyl)-1H-imidazol-2-yl)benzyl)-6,7-dihydropyrazolo[1,5-a]pyrimidin-5(4H)-one]
24 | 100 to 500 | COc1ncnc(C)c1-c1cc2n(n1)CCCN2Cc1ccc(-n2nc(C(F)(F)F)cc2C)cc1 [Example 26]
25 | 100 to 500 | COc1ncnc(C2CC2)c1-c1cc2n(n1)CCC(=O)N2Cc1ccc(-c2nc(C(F)(F)F)c[nH]2)cc1 [Example 69, 2-(4-cyclopropyl-6-methoxypyrimidin-5-yl)-4-(4-(4-(trifluoromethyl)-1H-imidazol-2-yl)benzyl)-6,7-dihydropyrazolo[1,5-α]pyrimidin-5(4H)-one]
26 | 100 to 500 | COc1ncnc(C2CC2)c1-c1cc2n(n1)CC(C)(C)C(=O)N2Cc1ccc(-c2nc(C(F)(F)F)cn2C)cc1 [Example 76, 2-(4-cyclopropyl-6-methoxypyrimidin-5-yl)-6,6-dimethyl-4-(4-(1-methyl-4-(trifluoromethyl)-1H-imidazol-2-yl)benzyl)-6,7-dihydropyrazolo[1,5-α]pyrimidin-5(4H)-one]
27 | < 100 | COc1ncnc(C2CC2)c1-c1cc2n(n1)CCC(=O)N2Cc1ccc(-c2nc(C(F)(F)F)cn2CCF)cc1 [Example 81]
28 | > 500 | COc1ncnc(C2CC2)c1-c1cc2n(n1)CCC(=O)N2Cc1ccc(-c2nc(C(F)(F)F)cn2C)nc1 [Example 83]
29 | > 500 | CCn1nc(C(F)(F)F)nc1-c1ccc(CN2C(=O)CCn3nc(-c4c(OC)ncnc4C4CC4)cc32)cc1 [Example 87]
30 | 100 to 500 | COc1ncnc(C2CC2)c1-c1cc2n(n1)CCC(=O)N2Cc1ccc(-n2nc(C)cc2C(F)(F)F)c(F)c1 [Example 88]
31 | > 500 | COc1ncnc(C2CC2)c1-c1cc2n(n1)CCC(=O)N2Cc1ccc(-c2nn(C)cc2C)cc1 [Example 90]
32 | 100 to 500 | COc1ncnc(C2CC2)c1-c1cc2n(n1)CCC(=O)N2Cc1ccc(-n2nc(C(F)(F)F)cc2OC)nc1 [Example 94]
33 | 100 to 500 | COCc1cc(C(F)(F)F)nn1-c1ccc(CN2C(=O)CCn3nc(-c4c(OC)ncnc4C4CC4)cc32)cc1 [Example 99]
34 | 100 to 500 | CCn1cc(C(F)(F)F)nc1-c1ccc(CN2C(=O)CCn3nc(-c4c(OC)ncnc4C4CC4)cc32)cn1 [Example 105]
35 | 100 to 500 | COc1ncnc(C2CC2)c1-c1cc2n(n1)CCC(=O)N2Cc1ccc(-n2nc(C#N)cc2OC)cc1 [Example 107]
36 | 100 to 500 | CCn1cc(C(F)(F)F)nc1-c1ccc(CN2C(=O)CCn3nc(-c4c(OC)ncnc4C4CC4)cc32)cc1OC [Example 136]
37 | 100 to 500 | CCn1cc(C(F)(F)F)nc1-c1ccc(CN2C(=O)CCn3nc(-c4c(OC)ncnc4C4CC4)cc32)nc1 [Example 137]
